Data published in patent US8980830B2 (priority 2007, dated 2015).
Read-outs that look alike come from different tables or passages of the source. Bridge positions count the residues as written; N and C are the ends. Square brackets hold non-standard residues; d marks the D form. Side chains are listed from the residue outwards. Ends that are not written are not given here. Peptide text beside a SMILES is read from it. PhLac = O=C(O)[C@@H](O)Cc1ccccc1

Legend:
[1] = Glucagon solubility assay; details: Table 10
Glucagon Receptor [2] = target: T1, Glucagon Receptor (Homo sapiens, UniProt P47871); assay: Glucagon receptor binding assay (scintillation proximity competition binding)
Glucagon Receptor [3] = target: T1, Glucagon Receptor; assay: cAMP inhibition: antagonism of glucagon-induced cAMP at glucagon receptor; type: cell-based; parameters: expressed in transfected cells; host or cells: HEK293
GLP-1 Receptor = GLP-1 Receptor (Homo sapiens, UniProt P43220); assay: Functional assay, cAMP induction (luciferase reporter, HEK293) at GLP-1 receptor; type: cell-based
[4] = pH 7
Glucagon Receptor [5] = target: T1, Glucagon Receptor; assay: Functional assay, cAMP induction (luciferase reporter, HEK293) at glucagon receptor; type: cell-based; parameters: expressed in transfected cells; host or cells: HEK293
[6] = Table 7, average ±STD, at least three experiments
[7] = read-out: IC50 (nM) (Receptor binding), Table 12

T1 sequence (P47871 26-477): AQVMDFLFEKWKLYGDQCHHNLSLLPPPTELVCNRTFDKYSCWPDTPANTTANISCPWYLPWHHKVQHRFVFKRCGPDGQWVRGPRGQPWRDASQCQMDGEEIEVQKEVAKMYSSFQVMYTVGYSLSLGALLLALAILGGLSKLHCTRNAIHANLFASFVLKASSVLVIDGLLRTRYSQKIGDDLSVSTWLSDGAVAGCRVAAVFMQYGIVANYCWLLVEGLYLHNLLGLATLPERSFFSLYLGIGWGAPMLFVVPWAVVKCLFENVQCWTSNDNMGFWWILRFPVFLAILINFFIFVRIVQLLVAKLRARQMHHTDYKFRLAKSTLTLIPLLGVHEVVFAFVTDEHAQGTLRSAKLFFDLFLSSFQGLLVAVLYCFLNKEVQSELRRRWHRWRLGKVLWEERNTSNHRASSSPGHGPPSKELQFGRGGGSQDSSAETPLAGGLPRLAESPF
Chain of GLP-1 Receptor (P43220 24-463): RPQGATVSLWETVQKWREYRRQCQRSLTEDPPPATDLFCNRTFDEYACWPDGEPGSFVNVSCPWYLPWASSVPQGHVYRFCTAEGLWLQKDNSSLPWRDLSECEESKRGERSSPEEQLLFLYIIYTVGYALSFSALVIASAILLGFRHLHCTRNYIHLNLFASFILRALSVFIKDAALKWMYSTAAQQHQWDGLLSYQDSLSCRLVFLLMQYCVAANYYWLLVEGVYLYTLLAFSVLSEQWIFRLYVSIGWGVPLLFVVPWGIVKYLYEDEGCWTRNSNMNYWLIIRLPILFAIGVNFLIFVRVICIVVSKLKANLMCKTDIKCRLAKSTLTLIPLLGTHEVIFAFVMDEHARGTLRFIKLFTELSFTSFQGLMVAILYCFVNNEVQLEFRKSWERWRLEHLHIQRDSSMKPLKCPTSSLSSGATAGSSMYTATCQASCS

Compound: CSCC[C@H](NC(=O)[C@H](CC(C)C)NC(=O)[C@H](Cc1c[nH]c2ccccc12)NC(=O)[C@H](CCC(N)=O)NC(=O)[C@@H](NC(=O)[C@H](Cc1ccccc1)NC(=O)[C@H](CC(=O)O)NC(=O)[C@H](CCC(N)=O)NC(=O)[C@H](C)NC(=O)[C@H](CCCNC(=N)N)NC(=O)[C@H](CCCNC(=N)N)NC(=O)[C@H](CO)NC(=O)[C@H](CC(=O)O)NC(=O)[C@H](CC(C)C)NC(=O)[C@H](Cc1ccc(O)cc1)NC(=O)[C@H](CCCCN)NC(=O)[C@H](CO)NC(=O)[C@H](Cc1ccc(O)cc1)NC(=O)[C@H](CC(=O)O)NC(=O)[C@H](CO)NC(=O)[C@@H](NC(=O)[C@@H](O)Cc1ccccc1)[C@@H](C)O)C(C)C)C(=O)N[C@@H](CC(=O)O)C(=O)N[C@H](C(N)=O)[C@@H](C)O [[PLA^6, D^9, D^28] Glucagon(aa6-29)-NH2]
- Solubility (%, pH 6-8) [1]: 100%

Compound: CSCC[C@H](NC(=O)[C@H](CC(C)C)NC(=O)[C@H](Cc1c[nH]c2ccccc12)NC(=O)[C@H](CCC(N)=O)NC(=O)[C@@H](NC(=O)[C@H](Cc1ccccc1)NC(=O)[C@H](CC(=O)O)NC(=O)[C@H](CCC(N)=O)NC(=O)[C@H](C)NC(=O)[C@H](CCCNC(=N)N)NC(=O)[C@H](CCCNC(=N)N)NC(=O)[C@H](CO)NC(=O)[C@H](CC(=O)O)NC(=O)[C@H](CC(C)C)NC(=O)[C@H](Cc1ccc(O)cc1)NC(=O)[C@H](CCCCN)NC(=O)[C@H](CO)NC(=O)[C@H](Cc1ccc(O)cc1)NC(=O)[C@H](CC(=O)O)NC(=O)[C@H](CO)NC(=O)[C@@H](NC(=O)[C@@H](O)Cc1ccccc1)[C@@H](C)O)C(C)C)C(=O)N[C@@H](CC(N)=O)C(=O)N[C@H](C(=O)O)[C@@H](C)O [[PLA^6, D^9]Glucagon(aa6-29)-COOH] (H-[PhLac]TSDYSKYLDSRRAQDFVQWLMNT-OH)
- Solubility (%, pH 6-8) [1]: 96%

Compound: CSCC[C@H](NC(=O)[C@H](CC(C)C)NC(=O)[C@H](Cc1c[nH]c2ccccc12)NC(=O)[C@H](CCC(N)=O)NC(=O)[C@@H](NC(=O)[C@H](Cc1ccccc1)NC(=O)[C@H](CC(=O)O)NC(=O)[C@H](CCC(N)=O)NC(=O)[C@H](C)NC(=O)[C@H](CCCNC(=N)N)NC(=O)[C@H](CCCNC(=N)N)NC(=O)[C@H](CO)NC(=O)[C@H](CC(=O)O)NC(=O)[C@H](CC(C)C)NC(=O)[C@H](Cc1ccc(O)cc1)NC(=O)[C@H](CCCCN)NC(=O)[C@H](CO)NC(=O)[C@H](Cc1ccc(O)cc1)NC(=O)[C@H](CC(=O)O)NC(=O)[C@H](CO)NC(=O)[C@@H](NC(=O)[C@@H](O)Cc1ccccc1)[C@@H](C)O)C(C)C)C(=O)N[C@@H](CC(N)=O)C(=O)N[C@H](C(N)=O)[C@@H](C)O [[PLA^6, D^9]Glucagon(aa6-29)-NH2] (H-[PhLac]TSDYSKYLDSRRAQDFVQWLMNT-NH2)
- Solubility (%, pH 6-8) [1]: 11%

Compound: CSCC[C@H](NC(=O)[C@H](CC(C)C)NC(=O)[C@H](Cc1c[nH]c2ccccc12)NC(=O)[C@H](CCC(N)=O)NC(=O)[C@@H](NC(=O)[C@H](Cc1ccccc1)NC(=O)[C@H](CC(=O)O)NC(=O)[C@H](CCC(N)=O)NC(=O)[C@H](C)NC(=O)[C@H](CCCNC(=N)N)NC(=O)[C@H](CCCNC(=N)N)NC(=O)[C@H](CO)NC(=O)[C@H](CC(=O)O)NC(=O)[C@H](CC(C)C)NC(=O)[C@H](Cc1ccc(O)cc1)NC(=O)[C@H](CCCCN)NC(=O)[C@H](CO)NC(=O)[C@H](Cc1ccc(O)cc1)NC(=O)[C@H](CCC(=O)O)NC(=O)[C@H](CO)NC(=O)[C@@H](NC(=O)[C@@H](O)Cc1ccccc1)[C@@H](C)O)C(C)C)C(=O)N[C@@H](CC(N)=O)C(=O)N[C@H](C(=O)NCC(=O)N1CCC[C@H]1C(=O)N[C@@H](CO)C(=O)N[C@@H](CO)C(=O)NCC(=O)N[C@@H](C)C(=O)N1CCC[C@H]1C(=O)N1CCC[C@H]1C(=O)N1CCC[C@H]1C(=O)N[C@@H](CO)C(N)=O)[C@@H](C)O [[PLA^6, E^9]Glucagon (aa6-29 + CEX)-NH2] (H-[PhLac]TSEYSKYLDSRRAQDFVQWLMNTGPSSGAPPPS-NH2)
- Solubility (%, pH 6-8) [1]: 16%

Compound: CSCC[C@H](NC(=O)[C@H](CC(C)C)NC(=O)[C@H](Cc1c[nH]c2ccccc12)NC(=O)[C@H](CCC(N)=O)NC(=O)[C@@H](NC(=O)[C@H](Cc1ccccc1)NC(=O)[C@H](CC(=O)O)NC(=O)[C@H](CCC(N)=O)NC(=O)[C@H](C)NC(=O)[C@H](CCCNC(=N)N)NC(=O)[C@H](CCCNC(=N)N)NC(=O)[C@H](CO)NC(=O)[C@H](CC(=O)O)NC(=O)[C@H](CC(C)C)NC(=O)[C@H](Cc1ccc(O)cc1)NC(=O)[C@H](CCCCN)NC(=O)[C@H](CO)NC(=O)[C@H](Cc1ccc(O)cc1)NC(=O)[C@H](CCC(=O)O)NC(=O)[C@H](CO)NC(=O)[C@@H](NC(=O)[C@@H](O)Cc1ccccc1)[C@@H](C)O)C(C)C)C(=O)N[C@@H](CC(N)=O)C(=O)N[C@H](C(N)=O)[C@@H](C)O [[PLA^6, E^9]Glucagon(aa6-29)-NH2] (H-[PhLac]TSEYSKYLDSRRAQDFVQWLMNT-NH2)
- Solubility (%, pH 6-8) [1]: 11%
- IC50 (Glucagon Receptor [2]; read-out: IC50 (nM) (Receptor binding), Table 11, ND: not detected): 12.3 ± 0.13 nM
- IC50 (Glucagon Receptor [3]; Glucagon antagonism IC50(nM, inhibit 0.5nM G), Table 25): 23.7 ± 4.16 nM
- GLP-1 agonism EC50(nM) (GLP-1 Receptor; Table 25): No agonism

Compound: CSCC[C@H](NC(=O)[C@H](CC(C)C)NC(=O)[C@H](Cc1c[nH]c2ccccc12)NC(=O)[C@H](CCC(N)=O)NC(=O)[C@@H](NC(=O)[C@H](Cc1ccccc1)NC(=O)[C@H](CC(=O)O)NC(=O)[C@@H]1CCCCNC(=O)CC[C@H](NC(=O)[C@H](CC(=O)O)NC(=O)[C@H](CC(C)C)NC(=O)[C@H](Cc2ccc(O)cc2)NC(=O)[C@H](CCCCN)NC(=O)[C@H](CO)NC(=O)[C@H](Cc2ccc(O)cc2)NC(=O)[C@H](CC(=O)O)NC(=O)[C@H](CO)NC(=O)[C@@H](NC(=O)[C@H](Cc2ccccc2)OC(=O)[C@@H](NC(=O)CNC(=O)[C@H](CCC(N)=O)NC(=O)[C@@H](N)CO)[C@@H](C)O)[C@@H](C)O)C(=O)N[C@@H](CCCNC(=N)N)C(=O)N[C@@H](CCCNC(=N)N)C(=O)N[C@@H](C)C(=O)N1)C(C)C)C(=O)N[C@@H](CC(=O)O)C(=O)N[C@H](C(N)=O)[C@@H](C)O [[S2Q3-O-PLA6, D9, E16K20(Lactam), D28] G(2-29)] (H-SQGT[PhLac]TSDYSKYLDERRAKDFVQWLMDT-NH2; lactam 15-19; N-terminus assumed)
- IC50 (Glucagon Receptor [3]; Glucagon antagonism IC50 (nM, inhibit 0.8 nM glucagon), Table 24): 20.8 ± 3.09 nM
- EC50 (GLP-1 Receptor; GLP-1 agonism EC50 (nM), Table 20): 45.7 ± 12.3 nM

Compound: FTSEYSKYLDSRRAQDFVQWLMNT-NH2 [[Glu^9]Glucagon(aa6-29)-NH2]
- IC50 (Glucagon Receptor [2]; [6]): 36.4 ± 5.23 nM
- IC50 (Glucagon Receptor [2]; read-out: IC50 (nM) receptor binding, Table 9): 36.4 ± 5.23 nM
- cAMP pA2 (Glucagon Receptor [3]): 7.16 ± 0.27

Compound: GTFTSEYSKYLDSRRAQDFVQWLMNT-NH2 [[Glu^9]Glucagon(aa4-29)-NH2]
- IC50 (Glucagon Receptor [2]; [6]): 136 ± 17.8 nM
- IC50 (Glucagon Receptor [2]; read-out: Receptor Binding IC50, Table 4): 136 nM

Compound: Glucagon Cys^17 Mal-PEG-5K [Glucagon, Cys17PEG5K]
- Percent Soluble [4]: 94%

Compound: Glucagon Cys^24 maleimido, PEG-3.4K-dimer [Glucagon C24 Dimer]
- EC50 (Glucagon Receptor [5]; read-out: cAMP Induction Glucagon Receptor EC50, Table 3, pegylated analogs): 0.1 ± 0.05 nM

Compound: HSQGTFTSDYARYLDARRAREFIKWLVRGRG-NH2 [ANK2 (Bayer peptide), reference compound]
- glucagon antagonism, in words (Glucagon Receptor [3]): no meaningful glucagon antagonism
- Glucagon IC50 (nM) (Glucagon Receptor [3]; Table 14): agonist
- Glucagon antagonism IC50 (nM, inhibit 0.8 nM glucagon) (Glucagon Receptor [3]; Table 19): weak agonist
- GLP-1 agonism, in words (GLP-1 Receptor): very potent GLP-1 agonism
- glucagon agonism, in words (Glucagon Receptor [5]): weak, but full glucagon agonism

Compound: [C^8(20kDaPEG), E^9]Glucagon(aa6-29)-NH2 (FTC(PEG 20 kDa)EYSKYLDSRRAQDFVQWLMNT-NH2)
- IC50 (Glucagon Receptor [2]; [7]): > 1000 nM
- IC50 (nM) (cAMP, inhibit 0.2 mM Glucagon) (Glucagon Receptor [3]; Table 12): no antagonism

Compound: [E^9, C^11(20kDaPEG)]Glucagon(aa6-29)-NH2 (FTSEYC(PEG 20 kDa)KYLDSRRAQDFVQWLMNT-NH2)
- IC50 (Glucagon Receptor [2]; [7]): > 1000 nM
- IC50 (nM) (cAMP, inhibit 0.2 mM Glucagon) (Glucagon Receptor [3]; Table 12): no antagonism

Compound: [E^9, C^24 (20kDaPEG)]Glucagon(aa6-29)-NH2 (FTSEYSKYLDSRRAQDFVC(PEG 20 kDa)WLMNT-NH2)
- IC50 (Glucagon Receptor [2]; [7]): > 1000 nM
- IC50 (Glucagon Receptor [2]; read-out: IC50 (nM) (Receptor binding), Table 12, listed as [Phe^6, E^9, C^24(20kDaPEG)]Glucagon(aa6-29)-NH2): > 10000 nM
- IC50 (nM) (cAMP, inhibit 0.2 mM Glucagon) (Glucagon Receptor [3]; Table 12): no antagonism

Compound: [K^5(CH2CH2S-20kDaPEG), E^9]Glucagon(aa5-29)-NH2 (K([CH2CH2S-PEG 20 kDa])FTSEYSKYLDSRRAQDFVQWLMNT-NH2)
- IC50 (Glucagon Receptor [2]; [7]): > 10000 nM
- IC50 (nM) (cAMP, inhibit 0.2 mM Glucagon) (Glucagon Receptor [3]; Table 12): no antagonism

Compound: [PLA6, E16K20(Lactam), C24(20 kDa), D28]G(6-29) ([PhLac]TSDYSKYLDERRAKDFVC(PEG 20 kDa)WLMDT-NH2; lactam 11-15)
- IC50 (Glucagon Receptor [3]; read-out: Glucagon antagonism IC50(nM) (inhibit 0.2-0.8 nM glucagon)): 374 to 1460 nM
- EC50 (GLP-1 Receptor; read-out: GLP-1 agonism EC50, Table 21): 450 to 1840 nM

Compound: [d-Cys^5(20kDaPEG), E^9]Glucagon(aa5-29)-NH2 ([dC](PEG 20 kDa)FTSEYSKYLDSRRAQDFVQWLMNT-NH2)
- IC50 (Glucagon Receptor [2]; [7]): > 10000 nM
- IC50 (Glucagon Receptor [3]; read-out: IC50 (nM) (cAMP, inhibit 0.2 mM Glucagon), Table 12, inhibit 0.2 mM Glucagon): 14800 nM
